From patent publication US20260262643A1, “HERBICIDAL BENZOXAZINES” (FMC CORPORATION, priority 2022, published 2026)

Assays:
blackgrass [1] = assay: Test A preemergence; format: in vivo, Alopecurus myosuroides
Outline: (§1)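 Loam/sand soil; pre-em directed soil spray at planting, post-em spray at 1–2 leaf (2–10 cm). Compound in non-phytotoxic solvent + surfactant. Greenhouse 10 d; visual injury vs untreated, 0 = no effect, 100 = complete control.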

corn [2] = assay: Test A preemergence; format: in vivo, Zea mays
Outline: as §1

foxtail, giant [3] = assay: Test A preemergence; format: in vivo, Setaria faberi
Outline: as §1

goosegrass [4] = assay: Test A preemergence; format: in vivo, Eleusine indica
Outline: as §1

kochia [5] = assay: Test A preemergence; format: in vivo, Bassia scoparia
Outline: as §1

oat, wild [6] = assay: Test A preemergence; format: in vivo, Avena fatua
Outline: as §1

pigweed, palmer [7] = assay: Test A preemergence; format: in vivo, Amaranthus palmeri
Outline: as §1

ragweed [8] = assay: Test A preemergence; format: in vivo, Ambrosia artemisiifolia
Outline: as §1

ryegrass, Italian [9] = assay: Test A preemergence; format: in vivo, Lolium multiflorum
Outline: as §1

soybean [10] = assay: Test A preemergence; format: in vivo, Glycine max
Outline: as §1

wheat [11] = assay: Test A preemergence; format: in vivo, Triticum aestivum
Outline: as §1

blackgrass [12] = assay: Test A postemergence; format: in vivo, Alopecurus myosuroides
Outline: as §1

corn [13] = assay: Test A postemergence; format: in vivo, Zea mays
Outline: as §1

foxtail, giant [14] = assay: Test A postemergence; format: in vivo, Setaria faberi
Outline: as §1

goosegrass [15] = assay: Test A postemergence; format: in vivo, Eleusine indica
Outline: as §1

kochia [16] = assay: Test A postemergence; format: in vivo, Bassia scoparia
Outline: as §1

oat, wild [17] = assay: Test A postemergence; format: in vivo, Avena fatua
Outline: as §1

pigweed, palmer [18] = assay: Test A postemergence; format: in vivo, Amaranthus palmeri
Outline: as §1

ragweed [19] = assay: Test A postemergence; format: in vivo, Ambrosia artemisiifolia
Outline: as §1

ryegrass, Italian [20] = assay: Test A postemergence; format: in vivo, Lolium multiflorum
Outline: as §1

soybean [21] = assay: Test A postemergence; format: in vivo, Glycine max
Outline: as §1

wheat [22] = assay: Test A postemergence; format: in vivo, Triticum aestivum
Outline: as §1

galium = assay: Test A postemergence; format: in vivo, Galium aparine
Outline: as §1

horseweed = assay: Test A postemergence; format: in vivo, Erigeron canadensis
Outline: as §1

barnyardgrass = assay: Test B flooded paddy test; format: in vivo, Echinochloa crus-galli; conditions: 250 g ai/ha, Flood, 13 days, 0 to 100 scale (0 no effect, 100 complete control)
Outline: (§2)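 Flooded to 3 cm at treatment time, 2-leaf plants got the test compound applied straight into the paddy water. They then stayed under constant flood in a greenhouse for 13 days. Ratings used a 0 to 100 visual scale.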

ducksalad = assay: Test B flooded paddy test; format: in vivo, Heteranthera limosa; conditions: 250 g ai/ha, Flood, 13 days, 0 to 100 scale (0 no effect, 100 complete control)
Outline: as §2

rice = assay: Test B flooded paddy test; format: in vivo, Oryza sativa; conditions: 250 g ai/ha, Flood, 13 days, 0 to 100 scale (0 no effect, 100 complete control)
Outline: as §2

sedge, umbrella = assay: Test B flooded paddy test; format: in vivo, Cyperus difformis; conditions: 250 g ai/ha, Flood, 13 days, 0 to 100 scale (0 no effect, 100 complete control)
Outline: as §2

[23] = 125 g ai/ha, visual injury after 10 days, 0 to 100 scale, 0 is no effect, 100 is complete control
[24] = 500 g ai/ha, 0 to 100 scale (0 no effect, 100 complete control), 10 days
[25] = 125 g ai/ha, postemergence, 10 days, visual injury, 0 to 100 scale (0 no effect, 100 complete control)
[26] = 500 g ai/ha, Postemergence, 0 to 100 scale

Compound: Cc1cccc2c1O[C@@H](C)CN2C(=O)c1cc(-n2cncn2)ccc1Cl [Compound 60]
- Plant response rating, Blackgrass (blackgrass [1]; [23]): 20
- Plant response rating, Blackgrass (blackgrass [1]; [24]): 70
- Plant response rating, Corn (corn [2]; [23]): 20
- Plant response rating, Corn (corn [2]; [24]): 30
- Plant response rating, Foxtail, Giant (foxtail, giant [3]; [23]): 100
- Plant response rating, Foxtail, Giant (foxtail, giant [3]; [24]): 100
- Plant response rating, Goosegrass (goosegrass [4]; [23]): 100
- Plant response rating, Goosegrass (goosegrass [4]; [24]): 100
- Plant response rating, Kochia (kochia [5]; [23]): 0
- Plant response rating, Kochia (kochia [5]; [24]): 30
- Plant response rating, Oat, Wild (oat, wild [6]; [23]): 0
- Plant response rating, Oat, Wild (oat, wild [6]; [24]): 0
- Plant response rating, Pigweed, Palmer (pigweed, palmer [7]; [23]): 30
- Plant response rating, Pigweed, Palmer (pigweed, palmer [7]; [24]): 90
- Plant response rating, Ragweed (ragweed [8]; [23]): 0
- Plant response rating, Ragweed (ragweed [8]; [24]): 20
- Plant response rating, Ryegrass, Italian (ryegrass, Italian [9]; [23]): 100
- Plant response rating, Ryegrass, Italian (ryegrass, Italian [9]; [24]): 100
- Plant response rating, Soybean (soybean [10]; [23]): 40
- Plant response rating, Soybean (soybean [10]; [24]): 100
- Plant response rating, Wheat (wheat [11]; [23]): 0
- Plant response rating, Wheat (wheat [11]; [24]): 30
- Plant response rating, Blackgrass (blackgrass [12]; [25]): 10
- Plant response rating, Blackgrass (blackgrass [12]; [26]): 60
- Plant response rating, Corn (corn [13]; [25]): 30
- Plant response rating, Corn (corn [13]; [26]): 80
- Plant response rating, Foxtail, Giant (foxtail, giant [14]; [25]): 90
- Plant response rating, Foxtail, Giant (foxtail, giant [14]; [26]): 90
- Plant response rating, Goosegrass (goosegrass [15]; [25]): 10
- Plant response rating, Goosegrass (goosegrass [15]; [26]): 80
- Plant response rating, Kochia (kochia [16]; [25]): 20
- Plant response rating, Kochia (kochia [16]; [26]): 70
- Plant response rating, Oat, Wild (oat, wild [17]; [25]): 50
- Plant response rating, Oat, Wild (oat, wild [17]; [26]): 90
- Plant response rating, Pigweed, Palmer (pigweed, palmer [18]; [25]): 20
- Plant response rating, Pigweed, Palmer (pigweed, palmer [18]; [26]): 50
- Plant response rating, Ragweed (ragweed [19]; [25]): 20
- Plant response rating, Ragweed (ragweed [19]; [26]): 50
- Plant response rating, Ryegrass, Italian (ryegrass, Italian [20]; [25]): 0
- Plant response rating, Ryegrass, Italian (ryegrass, Italian [20]; [26]): 60
- Plant response rating, Soybean (soybean [21]; [25]): 100
- Plant response rating, Soybean (soybean [21]; [26]): 100
- Plant response rating, Wheat (wheat [22]; [25]): 30
- Plant response rating, Wheat (wheat [22]; [26]): 60
- Plant response rating, Galium (galium; [25]): 90
- Plant response rating, Galium (galium; [26]): 100
- Plant response rating, Horseweed (horseweed; [25]): 0
- Plant response rating, Horseweed (horseweed; [26]): 0
- Plant response rating, Barnyardgrass (barnyardgrass): 15
- Plant response rating, Ducksalad (ducksalad): 45
- Plant response rating, Rice (rice): 0
- Plant response rating, Sedge, Umbrella (sedge, umbrella): 35

Compound: Cc1cccc2c1O[C@@H](C)CN2C(=O)c1cccc(-n2cnc(C(C)(C)C)n2)c1 [Compound 65]
- Plant response rating, Blackgrass (blackgrass [1]; [23]): 80
- Plant response rating, Blackgrass (blackgrass [1]; [24]): 90
- Plant response rating, Corn (corn [2]; [23]): 40
- Plant response rating, Corn (corn [2]; [24]): 50
- Plant response rating, Foxtail, Giant (foxtail, giant [3]; [23]): 100
- Plant response rating, Foxtail, Giant (foxtail, giant [3]; [24]): 100
- Plant response rating, Goosegrass (goosegrass [4]; [23]): 100
- Plant response rating, Goosegrass (goosegrass [4]; [24]): 100
- Plant response rating, Kochia (kochia [5]; [23]): 80
- Plant response rating, Kochia (kochia [5]; [24]): 100
- Plant response rating, Oat, Wild (oat, wild [6]; [23]): 70
- Plant response rating, Oat, Wild (oat, wild [6]; [24]): 80
- Plant response rating, Pigweed, Palmer (pigweed, palmer [7]; [23]): 90
- Plant response rating, Pigweed, Palmer (pigweed, palmer [7]; [24]): 100
- Plant response rating, Ragweed (ragweed [8]; [23]): 0
- Plant response rating, Ragweed (ragweed [8]; [24]): 40
- Plant response rating, Ryegrass, Italian (ryegrass, Italian [9]; [23]): 100
- Plant response rating, Ryegrass, Italian (ryegrass, Italian [9]; [24]): 100
- Plant response rating, Soybean (soybean [10]; [23]): 30
- Plant response rating, Soybean (soybean [10]; [24]): 90
- Plant response rating, Wheat (wheat [11]; [23]): 40
- Plant response rating, Wheat (wheat [11]; [24]): 70
- Plant response rating, Blackgrass (blackgrass [12]; [25]): 30
- Plant response rating, Blackgrass (blackgrass [12]; [26]): 80
- Plant response rating, Corn (corn [13]; [25]): 10
- Plant response rating, Corn (corn [13]; [26]): 70
- Plant response rating, Foxtail, Giant (foxtail, giant [14]; [25]): 10
- Plant response rating, Foxtail, Giant (foxtail, giant [14]; [26]): 50
- Plant response rating, Goosegrass (goosegrass [15]; [25]): 10
- Plant response rating, Goosegrass (goosegrass [15]; [26]): 40
- Plant response rating, Kochia (kochia [16]; [25]): 60
- Plant response rating, Kochia (kochia [16]; [26]): 90
- Plant response rating, Oat, Wild (oat, wild [17]; [26]): 20
- Plant response rating, Pigweed, Palmer (pigweed, palmer [18]; [26]): 70
- Plant response rating, Ragweed (ragweed [19]; [26]): 80
- Plant response rating, Ryegrass, Italian (ryegrass, Italian [20]; [26]): 100
- Plant response rating, Soybean (soybean [21]; [26]): 100
- Plant response rating, Wheat (wheat [22]; [26]): 20
- Plant response rating, Galium (galium; [25]): 100
- Plant response rating, Galium (galium; [26]): 100
- Plant response rating, Horseweed (horseweed; [25]): 0
- Plant response rating, Horseweed (horseweed; [26]): 20
- Plant response rating, Barnyardgrass (barnyardgrass): 0
- Plant response rating, Ducksalad (ducksalad): 45
- Plant response rating, Rice (rice): 0
- Plant response rating, Sedge, Umbrella (sedge, umbrella): 95
